This note sets out measurements from ChEMBL document CHEMBL5678818, “Discovery of potent SOS1 inhibitors that block RAS activation via disruption of the RAS-SOS1 interaction” (Proc Natl Acad Sci U S A, 2019).

In experiment [1] the target is AP2-associated protein kinase 1 (Homo sapiens) (UniProt Q2M2I8). Kind of experiment: Inhibition of AAK1 (unknown origin) assessed as residual activity at 1000 nM by KINOMEscan analysis relative to control.
In experiment [2] the target is T1, Atypical kinase COQ8B, mitochondrial (Homo sapiens) (UniProt Q96D53).
T1 sequence (whole entry): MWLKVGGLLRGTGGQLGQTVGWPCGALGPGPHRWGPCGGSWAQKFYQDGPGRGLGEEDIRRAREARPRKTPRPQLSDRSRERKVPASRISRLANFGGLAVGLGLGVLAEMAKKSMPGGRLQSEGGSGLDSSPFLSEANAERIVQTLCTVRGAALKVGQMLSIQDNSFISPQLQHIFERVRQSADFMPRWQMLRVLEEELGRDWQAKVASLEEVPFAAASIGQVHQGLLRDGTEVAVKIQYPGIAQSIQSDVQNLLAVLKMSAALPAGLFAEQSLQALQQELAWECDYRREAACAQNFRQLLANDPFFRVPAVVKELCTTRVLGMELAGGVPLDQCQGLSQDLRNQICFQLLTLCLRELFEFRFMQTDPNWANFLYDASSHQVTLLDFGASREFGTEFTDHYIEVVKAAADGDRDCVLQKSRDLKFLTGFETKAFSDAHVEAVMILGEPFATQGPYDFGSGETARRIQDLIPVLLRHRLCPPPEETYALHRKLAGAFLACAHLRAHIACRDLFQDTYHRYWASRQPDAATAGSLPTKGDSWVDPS
Kind of experiment: Inhibition of ADCK4 (unknown origin) assessed as residual activity at 1000 nM by KINOMEscan analysis relative to control.

Experiment [3] addresses Tyrosine-protein kinase CSK (Homo sapiens) (UniProt P41240). Kind of experiment: Inhibition of CSK (unknown origin) assessed as residual activity at 1000 nM by KINOMEscan analysis relative to control.
For experiment [4], the target named is T2, Serine/threonine-protein kinase DCLK2 (Homo sapiens) (UniProt Q8N568).
T2 sequence (whole entry): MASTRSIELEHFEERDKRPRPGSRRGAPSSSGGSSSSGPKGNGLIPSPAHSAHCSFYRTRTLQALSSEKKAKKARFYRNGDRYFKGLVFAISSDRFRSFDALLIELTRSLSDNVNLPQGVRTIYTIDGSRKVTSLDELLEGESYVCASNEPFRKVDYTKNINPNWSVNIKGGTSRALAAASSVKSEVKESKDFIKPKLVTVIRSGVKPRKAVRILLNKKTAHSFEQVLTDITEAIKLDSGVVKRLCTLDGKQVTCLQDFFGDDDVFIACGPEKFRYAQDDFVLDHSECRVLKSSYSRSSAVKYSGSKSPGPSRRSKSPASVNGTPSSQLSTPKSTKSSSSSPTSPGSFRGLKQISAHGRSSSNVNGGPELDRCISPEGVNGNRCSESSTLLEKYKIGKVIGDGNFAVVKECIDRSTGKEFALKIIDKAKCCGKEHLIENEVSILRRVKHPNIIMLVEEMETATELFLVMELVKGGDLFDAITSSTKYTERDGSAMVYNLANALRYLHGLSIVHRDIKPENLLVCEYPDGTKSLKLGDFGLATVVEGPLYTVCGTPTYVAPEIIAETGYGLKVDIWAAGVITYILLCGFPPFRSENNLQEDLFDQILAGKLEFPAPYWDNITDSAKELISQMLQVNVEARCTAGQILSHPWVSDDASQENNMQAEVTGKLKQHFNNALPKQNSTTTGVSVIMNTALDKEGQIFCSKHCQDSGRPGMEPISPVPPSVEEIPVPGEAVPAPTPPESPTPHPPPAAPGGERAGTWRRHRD
The experiment in a line: Inhibition of DCAMKL2 (unknown origin) assessed as residual activity at 1000 nM by KINOMEscan analysis relative to control.

Experiment [5] addresses T3, Interleukin-1 receptor-associated kinase 3 (Homo sapiens) (UniProt Q9Y616).
T3 sequence (whole entry): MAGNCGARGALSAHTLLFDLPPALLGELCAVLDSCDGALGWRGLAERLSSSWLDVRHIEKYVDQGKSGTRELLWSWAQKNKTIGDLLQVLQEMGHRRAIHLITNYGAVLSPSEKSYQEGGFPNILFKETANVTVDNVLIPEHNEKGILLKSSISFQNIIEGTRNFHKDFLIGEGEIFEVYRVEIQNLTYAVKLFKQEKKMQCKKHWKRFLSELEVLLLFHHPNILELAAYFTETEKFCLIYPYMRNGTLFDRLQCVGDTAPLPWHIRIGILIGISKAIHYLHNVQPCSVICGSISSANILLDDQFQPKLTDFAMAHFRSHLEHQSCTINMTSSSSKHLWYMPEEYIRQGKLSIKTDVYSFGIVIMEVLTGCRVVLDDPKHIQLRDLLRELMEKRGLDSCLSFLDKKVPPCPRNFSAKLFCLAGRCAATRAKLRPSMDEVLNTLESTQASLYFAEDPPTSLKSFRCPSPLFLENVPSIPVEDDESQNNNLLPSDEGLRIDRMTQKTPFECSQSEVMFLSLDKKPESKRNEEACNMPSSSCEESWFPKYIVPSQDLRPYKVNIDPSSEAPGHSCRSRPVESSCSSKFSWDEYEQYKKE
The experiment in a line: Inhibition of IRAK3 (unknown origin) assessed as residual activity at 1000 nM by KINOMEscan analysis relative to control.

In experiment [6] the target is Myosin light chain kinase, smooth muscle (Homo sapiens) (UniProt Q15746). Kind of experiment: Inhibition of MLCK (unknown origin) assessed as residual activity at 1000 nM by KINOMEscan analysis relative to control.
Experiment [7] addresses Serine/threonine-protein kinase 26 (Homo sapiens) (UniProt Q9P289). The experiment in a line: Inhibition of MST4 (unknown origin) assessed as residual activity at 1000 nM by KINOMEscan analysis relative to control.
In experiment [8] the target is Myosin-IIIa (Homo sapiens) (UniProt Q8NEV4). The experiment in a line: Inhibition of MYO3A (unknown origin) assessed as residual activity at 1000 nM by KINOMEscan analysis relative to control.
Experiment [9] addresses Serine/threonine-protein kinase PAK 5 (Homo sapiens) (UniProt Q9P286). Kind of experiment: Inhibition of PAK7 (unknown origin) assessed as residual activity at 1000 nM by KINOMEscan analysis relative to control.
The subject of experiment [10] is Proto-oncogene tyrosine-protein kinase receptor Ret (Homo sapiens), P07949 [V804L]. The experiment in a line: Inhibition of RET V804L mutant (unknown origin) assessed as residual activity at 1000 nM by KINOMEscan analysis relative to control.

AP2-associated protein kinase 1 (Homo sapiens), sequence (Q2M2I8 whole entry, looked up): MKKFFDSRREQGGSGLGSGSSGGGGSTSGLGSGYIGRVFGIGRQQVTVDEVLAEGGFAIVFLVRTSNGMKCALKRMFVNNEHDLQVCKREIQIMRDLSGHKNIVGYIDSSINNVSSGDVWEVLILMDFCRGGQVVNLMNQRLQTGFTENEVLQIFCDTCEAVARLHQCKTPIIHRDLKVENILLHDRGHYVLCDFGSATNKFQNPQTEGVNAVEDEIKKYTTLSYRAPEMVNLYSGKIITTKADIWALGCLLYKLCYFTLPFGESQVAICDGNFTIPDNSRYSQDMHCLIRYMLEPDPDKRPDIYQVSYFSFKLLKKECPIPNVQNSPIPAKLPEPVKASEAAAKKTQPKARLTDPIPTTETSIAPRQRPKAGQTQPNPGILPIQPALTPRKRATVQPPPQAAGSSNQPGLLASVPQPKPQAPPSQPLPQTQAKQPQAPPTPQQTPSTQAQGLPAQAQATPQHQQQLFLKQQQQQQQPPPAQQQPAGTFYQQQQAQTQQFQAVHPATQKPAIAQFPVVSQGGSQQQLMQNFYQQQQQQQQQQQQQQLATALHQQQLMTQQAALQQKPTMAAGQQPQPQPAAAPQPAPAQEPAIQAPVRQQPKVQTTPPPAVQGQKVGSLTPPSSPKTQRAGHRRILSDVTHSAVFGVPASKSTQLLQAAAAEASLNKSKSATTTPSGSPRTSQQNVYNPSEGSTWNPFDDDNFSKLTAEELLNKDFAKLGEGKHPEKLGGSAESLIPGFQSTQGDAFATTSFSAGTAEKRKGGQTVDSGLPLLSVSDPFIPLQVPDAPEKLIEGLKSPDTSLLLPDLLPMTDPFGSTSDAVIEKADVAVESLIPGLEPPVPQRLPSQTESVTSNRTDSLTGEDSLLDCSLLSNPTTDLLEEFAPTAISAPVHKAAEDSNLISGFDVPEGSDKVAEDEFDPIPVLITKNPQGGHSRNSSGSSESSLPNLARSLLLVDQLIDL
Tyrosine-protein kinase CSK (Homo sapiens), sequence (P41240 2-450 limits assumed): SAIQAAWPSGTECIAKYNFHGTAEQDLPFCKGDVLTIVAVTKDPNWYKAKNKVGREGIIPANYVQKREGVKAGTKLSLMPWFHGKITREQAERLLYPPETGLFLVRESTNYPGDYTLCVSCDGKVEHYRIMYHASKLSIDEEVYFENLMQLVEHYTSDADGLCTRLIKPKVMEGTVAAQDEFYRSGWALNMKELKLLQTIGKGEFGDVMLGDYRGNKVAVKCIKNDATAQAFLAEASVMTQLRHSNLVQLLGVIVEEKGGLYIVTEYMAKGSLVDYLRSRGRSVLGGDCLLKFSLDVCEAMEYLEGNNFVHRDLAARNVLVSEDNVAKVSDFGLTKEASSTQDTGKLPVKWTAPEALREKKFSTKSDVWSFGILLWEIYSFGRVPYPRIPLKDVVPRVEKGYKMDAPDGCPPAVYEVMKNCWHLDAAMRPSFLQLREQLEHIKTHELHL
Myosin-IIIa (Homo sapiens), sequence (Q8NEV4 whole entry): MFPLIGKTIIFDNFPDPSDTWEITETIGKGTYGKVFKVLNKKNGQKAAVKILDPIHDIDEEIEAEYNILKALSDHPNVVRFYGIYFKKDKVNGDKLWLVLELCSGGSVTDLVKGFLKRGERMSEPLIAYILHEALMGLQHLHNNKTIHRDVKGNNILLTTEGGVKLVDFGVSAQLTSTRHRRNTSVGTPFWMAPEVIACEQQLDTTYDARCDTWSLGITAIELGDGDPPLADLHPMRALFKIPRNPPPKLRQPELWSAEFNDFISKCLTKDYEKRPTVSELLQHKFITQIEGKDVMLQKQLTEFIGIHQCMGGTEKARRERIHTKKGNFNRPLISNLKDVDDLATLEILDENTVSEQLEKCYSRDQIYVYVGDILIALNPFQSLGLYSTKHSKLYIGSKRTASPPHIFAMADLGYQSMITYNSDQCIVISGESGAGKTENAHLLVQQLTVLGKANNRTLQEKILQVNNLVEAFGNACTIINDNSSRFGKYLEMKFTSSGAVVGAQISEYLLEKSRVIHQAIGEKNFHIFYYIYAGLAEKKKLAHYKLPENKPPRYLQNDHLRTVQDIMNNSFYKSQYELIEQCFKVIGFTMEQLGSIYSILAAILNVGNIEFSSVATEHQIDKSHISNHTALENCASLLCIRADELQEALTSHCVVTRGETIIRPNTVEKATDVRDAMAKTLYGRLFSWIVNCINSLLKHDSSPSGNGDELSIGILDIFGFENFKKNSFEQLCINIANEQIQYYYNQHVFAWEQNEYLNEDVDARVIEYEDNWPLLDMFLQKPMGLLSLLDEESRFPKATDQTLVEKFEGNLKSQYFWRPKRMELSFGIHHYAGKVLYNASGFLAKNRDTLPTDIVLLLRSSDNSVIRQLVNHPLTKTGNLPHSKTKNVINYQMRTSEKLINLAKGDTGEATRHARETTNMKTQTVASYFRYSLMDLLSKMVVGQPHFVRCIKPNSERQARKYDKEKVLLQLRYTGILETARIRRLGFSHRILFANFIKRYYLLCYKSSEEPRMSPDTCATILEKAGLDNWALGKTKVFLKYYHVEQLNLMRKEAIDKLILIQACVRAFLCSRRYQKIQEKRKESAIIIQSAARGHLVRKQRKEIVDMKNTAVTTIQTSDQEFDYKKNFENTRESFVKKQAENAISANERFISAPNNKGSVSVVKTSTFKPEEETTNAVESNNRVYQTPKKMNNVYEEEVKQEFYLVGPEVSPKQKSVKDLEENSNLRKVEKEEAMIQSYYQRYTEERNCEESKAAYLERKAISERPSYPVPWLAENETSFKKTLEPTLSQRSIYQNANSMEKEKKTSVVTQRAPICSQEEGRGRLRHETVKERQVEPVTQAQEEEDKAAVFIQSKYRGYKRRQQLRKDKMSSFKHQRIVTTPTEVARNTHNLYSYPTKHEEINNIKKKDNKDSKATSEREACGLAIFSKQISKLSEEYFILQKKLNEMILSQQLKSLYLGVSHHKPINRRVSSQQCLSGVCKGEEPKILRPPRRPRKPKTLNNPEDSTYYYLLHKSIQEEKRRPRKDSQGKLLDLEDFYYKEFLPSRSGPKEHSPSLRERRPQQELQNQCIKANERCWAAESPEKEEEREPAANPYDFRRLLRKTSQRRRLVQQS
Myosin light chain kinase, smooth muscle (Homo sapiens), sequence (Q15746 whole entry): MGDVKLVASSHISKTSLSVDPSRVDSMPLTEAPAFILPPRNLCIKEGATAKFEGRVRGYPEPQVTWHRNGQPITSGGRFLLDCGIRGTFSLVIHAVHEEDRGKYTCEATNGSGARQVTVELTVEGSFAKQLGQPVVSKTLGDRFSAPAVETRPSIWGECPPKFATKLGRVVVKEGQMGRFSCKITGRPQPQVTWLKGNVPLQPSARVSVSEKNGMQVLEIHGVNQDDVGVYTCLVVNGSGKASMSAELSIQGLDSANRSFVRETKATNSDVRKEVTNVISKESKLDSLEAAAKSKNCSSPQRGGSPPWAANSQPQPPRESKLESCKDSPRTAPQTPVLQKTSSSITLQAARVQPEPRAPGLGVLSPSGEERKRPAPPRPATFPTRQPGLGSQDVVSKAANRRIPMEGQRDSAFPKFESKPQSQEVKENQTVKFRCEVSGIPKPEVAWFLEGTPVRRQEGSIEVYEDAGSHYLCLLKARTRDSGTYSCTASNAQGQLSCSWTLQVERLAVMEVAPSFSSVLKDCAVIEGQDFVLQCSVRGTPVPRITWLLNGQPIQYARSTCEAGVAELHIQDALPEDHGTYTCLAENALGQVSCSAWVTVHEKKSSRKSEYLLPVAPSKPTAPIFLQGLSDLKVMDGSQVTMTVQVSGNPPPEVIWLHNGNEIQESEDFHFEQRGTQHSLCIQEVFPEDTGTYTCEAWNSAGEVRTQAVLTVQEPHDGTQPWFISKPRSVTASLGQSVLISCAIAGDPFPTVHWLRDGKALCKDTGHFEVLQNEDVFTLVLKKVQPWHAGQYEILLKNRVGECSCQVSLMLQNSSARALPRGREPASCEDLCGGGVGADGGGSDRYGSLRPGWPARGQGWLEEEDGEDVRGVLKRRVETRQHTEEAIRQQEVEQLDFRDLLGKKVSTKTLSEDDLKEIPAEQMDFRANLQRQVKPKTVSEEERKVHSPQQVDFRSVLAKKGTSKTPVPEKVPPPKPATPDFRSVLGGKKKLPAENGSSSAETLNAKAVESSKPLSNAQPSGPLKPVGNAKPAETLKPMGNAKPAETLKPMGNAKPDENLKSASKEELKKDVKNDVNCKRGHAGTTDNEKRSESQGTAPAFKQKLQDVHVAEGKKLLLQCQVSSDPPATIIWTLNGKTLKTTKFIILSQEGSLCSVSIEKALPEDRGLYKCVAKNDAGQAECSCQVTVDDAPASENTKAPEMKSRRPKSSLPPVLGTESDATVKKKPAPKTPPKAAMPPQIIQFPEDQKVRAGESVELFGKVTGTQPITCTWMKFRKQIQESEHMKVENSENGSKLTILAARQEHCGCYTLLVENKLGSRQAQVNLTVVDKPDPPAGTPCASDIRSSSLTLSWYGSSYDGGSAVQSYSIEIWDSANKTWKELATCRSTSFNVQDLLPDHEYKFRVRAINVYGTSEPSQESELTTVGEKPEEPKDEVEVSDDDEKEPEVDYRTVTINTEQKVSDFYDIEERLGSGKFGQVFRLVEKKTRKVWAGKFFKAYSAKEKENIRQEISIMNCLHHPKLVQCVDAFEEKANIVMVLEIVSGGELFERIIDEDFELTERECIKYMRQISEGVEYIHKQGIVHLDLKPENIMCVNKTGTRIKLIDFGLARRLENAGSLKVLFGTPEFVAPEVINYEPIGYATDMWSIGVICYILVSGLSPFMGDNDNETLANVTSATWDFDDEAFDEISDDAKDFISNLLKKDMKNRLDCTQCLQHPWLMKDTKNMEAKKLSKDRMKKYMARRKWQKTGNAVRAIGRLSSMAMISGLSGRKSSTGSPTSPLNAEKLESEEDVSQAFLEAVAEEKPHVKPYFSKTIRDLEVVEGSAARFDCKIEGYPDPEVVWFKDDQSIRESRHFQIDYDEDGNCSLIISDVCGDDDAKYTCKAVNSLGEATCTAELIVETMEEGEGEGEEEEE

Regarding `COc1cc2ncnc(N[C@H](C)c3cccc4ccccc34)c2cc1OC`, the Activity in experiment [1] is 100%; in [2] it was 100%; in experiment [3] it was 87%; in [4], 100%; in experiment [5], 100%; in [6] it was 100%. In addition, the Activity in experiment [7] came to 98%; in [8], 97%; in experiment [9], 100%; in [10], 100%.

For the molecule `COc1cc2nc(C)nc(N[C@H](C)c3cccc(-c4cn[nH]c4)c3)c2cc1OC`, the Activity in experiment [1] was determined as 100%; in experiment [2], 89%; in experiment [3], 93%; in [4] it was 98%; in experiment [5], 100%; in [6], 100%. The Activity in experiment [7] turned out to be 74%; in experiment [8], 92%; in [9], 96%; in [10] it was 65%.
